Test results published in patent US11957759B1, “Rapidly accelerated fibrosarcoma (RAF) degrading compounds and associated methods of use” (Arvinas Operations, Inc., priority 2022, dated 2024).

Key:
B-RAF V600E = biological target: T1, B-RAF V600E (Homo sapiens, UniProt P15056, V600E); test: Target protein degradation, assay C: T-Rex 293 cells, HA-BRAF_V600E, 384 well format; format: cell-based; details: T-Rex 293 HA-BRAF_V600E cells, 24 hours, Examples 83-269; for DC50: Assay C; for Dmax: T-REx-293, Assay C
T1 construct: expressed in transfected cells; host or cells: T-Rex 293 cells (Invitrogen #R71007)
T1 sequence (P15056 whole entry V600E): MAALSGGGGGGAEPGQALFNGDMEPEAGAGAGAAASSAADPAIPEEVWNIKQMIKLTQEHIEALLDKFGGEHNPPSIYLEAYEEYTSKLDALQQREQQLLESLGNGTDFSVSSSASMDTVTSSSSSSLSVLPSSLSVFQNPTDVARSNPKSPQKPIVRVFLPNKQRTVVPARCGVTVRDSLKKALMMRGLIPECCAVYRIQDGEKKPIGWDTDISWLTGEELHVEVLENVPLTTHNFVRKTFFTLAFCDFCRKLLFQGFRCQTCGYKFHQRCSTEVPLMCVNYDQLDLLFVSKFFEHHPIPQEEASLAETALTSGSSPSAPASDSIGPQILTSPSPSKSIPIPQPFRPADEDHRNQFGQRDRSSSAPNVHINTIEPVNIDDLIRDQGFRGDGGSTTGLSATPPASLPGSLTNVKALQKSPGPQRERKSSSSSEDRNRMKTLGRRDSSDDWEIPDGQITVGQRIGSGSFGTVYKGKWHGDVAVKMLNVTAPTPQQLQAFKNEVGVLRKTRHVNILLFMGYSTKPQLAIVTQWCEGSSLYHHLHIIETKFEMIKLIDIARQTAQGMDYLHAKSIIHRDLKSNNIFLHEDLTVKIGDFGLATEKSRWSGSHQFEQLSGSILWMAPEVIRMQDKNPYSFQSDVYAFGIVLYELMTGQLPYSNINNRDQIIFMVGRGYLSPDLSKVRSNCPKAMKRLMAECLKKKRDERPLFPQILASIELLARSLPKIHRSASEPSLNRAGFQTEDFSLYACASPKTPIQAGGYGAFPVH
Method: C. T-Rex 293 Cells (384 Well Format)
(§1) T-Rex 293 cells were purchased from Invitrogen (#R71007), and stably transfected with a pcDNA4/TO_HA-BRAF_V600E construct, using 400 ug Zeocin for selection. V600E cells are plated in DMEM media (Gibco #11965118) containing 10% FBS (Gibco #16000044), 1% penicillin-streptomycin (ThermoFisher #15140122), 1:250 zeocin (Invitrogen #R-25005), and 1 ng/mL doxycycline (Selleckchem #4163) at a density of 7,500 cells/well in 45 μl on PDL coated, black clear bottom 384 well plates (Corning #354663) and incubated at 37° C.+5% CO2 for 24 hours. The following day, PROTAC compounds in a 1:3 11 point dilution are diluted into DMEM media using an Agilent Bravo. 5 ul of PROTACs suspended in DMEM media are added to the cells, with a final assay concentration ranging from 300 nM to 5 pM in 0.5% DMSO. Plates are incubated at 37° C.+5% CO2 for 24 hours. At the end of treatment, media is aspirated, and cells are fixed in 50 uL 4% PFA (EMS #15710) in PBS++(PBS, 1 mM CaCl, 1 mM MgCl) at RT for 15 minutes. Cells are washed 2× with 60 uL PBS++ and permeabilized in 50 uL 1% Triton X-100 (Sigma #93443) in PBS++ for 5 minutes at RT. Cells are washed in PBS++ prior to blocking with 50 uL Licor blocking buffer (Licor #927-60001) for 1 hour at RT. HA-tagged BRAF was stained using 50 uL HA antibody (CST #3724) at 1:1000 in Licor blocking buffer for two hours at RT. Primary is aspirated before adding 50 ul of secondary antibody solution containing 1:1000 Hoechst (ThermoFisher #62249), 1:1000 HCS CellMask Deep Red Stain (ThermoFisher #H32721), and 1:5000 goat anti-rabbit IgG Alexa-Fluor 488 (ThermoFisher #A32731) in PBS++ for 1 hr at RT. Plates are washed 4× with 60 uL PBS++, then sealed with Adhesive Black Light Absorbing Film (VWR #89087-692) and imaged on the ThermoFisher CX7 PRO high content instrument. BRAF intensity is quantified in HCS Studio software (ThermoFisher), using a custom script, exported, analyzed using KNIME, and curve curation is performed in an ELN (Scilligence). Cell toxicity is measured via comparing number of nuclei in PROTAC treated wells to DMSO controls.
(§2) The concentration of an exemplary compound that leads to half maximal degradation (DC50) as well as the maximum degradation observed (Dmax, conventionally expressed as a percentage of control) is shown below in Table 2.

B-RAF G466V = biological target: T2, B-RAF G466V (Homo sapiens, UniProt P15056, G466V); test: Target protein degradation, assay D: T-Rex 293 cells, HA-BRAF_G466V, 384 well format; format: cell-based; details: T-Rex 293 HA-BRAF_G466V cells, 24 hours, Examples 83-269; for DC50: Assay D; for Dmax: T-REx-293, Assay D
T2 construct: expressed in transfected cells; host or cells: T-Rex 293 cells (Invitrogen #R71007)
T2 sequence (P15056 whole entry G466V): as the sequence (P15056 whole entry V600E) above, with G466V, E600V counted along it
Method: D. T-Rex 293 Cells (384 Well Format)
as §1, with “pcDNA4/TO_HA-BRAF_G466V” for “pcDNA4/TO_HA-BRAF_V600E”, “G466V” for “V600E”
as §2

Row | SMILES | DC50 (B-RAF V600E) | Dmax (B-RAF V600E) | DC50 (B-RAF G466V) | Dmax (B-RAF G466V)
1 | N#Cc1c(NS(=O)(=O)N2CC[C@@H](F)C2)ccc(F)c1Oc1ccc2ncn(-c3ccc(N4CCC(CN5CCC6(CC5)CCN(c5ccc7c(c5)C(=O)N(C5CCC(=O)NC5=O)C7=O)CC6)CC4)nc3)c(=O)c2c1 (stereo partly drawn) [Example 146, (3R)-N-{2-cyano-3-[(3-{6-[4-({9-[2-(2,6-dioxopiperidin-3-yl)-1,3-dioxo-2,3-dihydro-1H-isoindol-5-yl]-3,9-diazaspiro[5.5]undecan-3-yl}methyl)piperidin-1-yl]pyridin-3-yl}-4-oxo-3,4-dihydroquinazolin-6-yl)oxy]-4-fluorophenyl}-3-fluoropyrrolidine-1-sulfonamide] | 5 to 50 nM | 35 to 70% | 1 to 10 nM | 35 to 70%
2 | N#Cc1c(NS(=O)(=O)N2CC[C@@H](F)C2)ccc(F)c1Oc1ccc2ncn(-c3ccc(C4CCN(CC5CN(c6ccc7c(c6)CN([C@H]6CCC(=O)NC6=O)C7=O)C5)CC4)cc3)c(=O)c2c1 [Example 256, (3R)-N-(2-cyano-3-([3-(4-{1-[(1-{2-[(3S)-2,6-dioxopiperidin-3-yl]-1-oxo-2,3-dihydro-1H-isoindol-5-yl}azetidin-3-yl)methyl]piperidin-4-yl}phenyl)-4-oxo-3,4-dihydroquinazolin-6-yl]oxy}-4-fluorophenyl)-3-fluoropyrrolidine-1-sulfonamide] | 50 to 500 nM | 35 to 70% | 1 to 10 nM | ≥ 70%
3 | N#Cc1c(NS(=O)(=O)N2CC[C@@H](F)C2)ccc(F)c1Oc1ccc2ncn(-c3cccc(C4CCN(CC5CCN(c6ccc7c(c6)CN([C@H]6CCC(=O)NC6=O)C7=O)CC5)C4)c3)c(=O)c2c1 (single isomer, unassigned) [Example 259, (3R)-N-{2-cyano-3-[(3-{3-[(3R*)-1-[(1-{2-[(3S)-2,6-dioxopiperidin-3-yl]-1-oxo-2,3-dihydro-1H-isoindol-5-yl}piperidin-4-yl)methyl]pyrrolidin-3-yl]phenyl}-4-oxo-3,4-dihydroquinazolin-6-yl)oxy]-4-fluorophenyl}-3-fluoropyrrolidine-1-sulfonamide] | 50 to 500 nM | – | 1 to 10 nM | –
4 | N#Cc1c(NS(=O)(=O)N2CC[C@@H](F)C2)ccc(F)c1Oc1ccc2ncn(-c3ccc(N4CCC(OC5CC6(C5)CN(c5ccc7c(c5)CN(C5CCC(=O)NC5=O)C7=O)C6)CC4)cc3)c(=O)c2c1 (stereo partly drawn) [Example 178, (3R)—N-{2-cyano-3-[(3-{4-[4-({2-[2-(2,6-dioxopiperidin-3-yl)-1-oxo-2,3-dihydro-1H-isoindol-5-yl]-2-azaspiro[3.3]heptan-6-yl}oxy)piperidin-1-yl]phenyl}-4-oxo-3,4-dihydroquinazolin-6-yl)oxy]-4-fluorophenyl}-3-fluoropyrrolidine-1-sulfonamide] | 50 to 500 nM | 35 to 70% | 10 to 30 nM | 35 to 70%
5 | N#Cc1c(NS(=O)(=O)N2CC[C@@H](F)C2)ccc(F)c1Oc1ccc2ncn(-c3cnc(N4CCC(CN5CC6(CCN(c7ccc8c(c7)CN(C7CCC(=O)NC7=O)C8=O)CC6)C5)CC4)nc3)c(=O)c2c1 (stereo partly drawn) [Example 132, (3R)-N-{2-cyano-3-[(3-{2-[4-({7-[2-(2,6-dioxopiperidin-3-yl)-1-oxo-2,3-dihydro-1H-isoindol-5-yl]-2,7-diazaspiro[3.5]nonan-2-yl}methyl)piperidin-1-yl]pyrimidin-5-yl}-4-oxo-3,4-dihydroquinazolin-6-yl)oxy]-4-fluorophenyl}-3-fluoropyrrolidine-1-sulfonamide] | 50 to 500 nM | 35 to 70% | ≤ 1 nM | 35 to 70%
6 | N#Cc1c(NS(=O)(=O)N2CC[C@@H](F)C2)ccc(F)c1Oc1ccc2ncn(-c3cccc(N4CCN(CC5CCN(c6ccc7c(c6)CN(C6CCC(=O)NC6=O)C7=O)CC5)CC4)c3)c(=O)c2c1 (stereo partly drawn) [Example 90, (3R)-N-{2-cyano-3-[(3-{3-[4-({1-[2-(2,6-dioxopiperidin-3-yl)-1-oxo-2,3-dihydro-1H-isoindol-5-yl]piperidin-4-yl}methyl)piperazin-1-yl]phenyl}-4-oxo-3,4-dihydroquinazolin-6-yl)oxy]-4-fluorophenyl}-3-fluoropyrrolidine-1-sulfonamide] | 50 to 500 nM | 35 to 70% | 1 to 10 nM | 35 to 70%
7 | N#Cc1c(NS(=O)(=O)N2CC[C@@H](F)C2)ccc(F)c1Oc1ccc2ncn(-c3ccc(N4CCN(CCN5CCC(c6ccc7c(c6)CN(C6CCC(=O)NC6=O)C7=O)CC5)CC4)cc3)c(=O)c2c1 (stereo partly drawn) [Example 176, (3R)—N-{2-cyano-3-[(3-{4-[4-(2-{4-[2-(2,6-dioxopiperidin-3-yl)-1-oxo-2,3-dihydro-1H-isoindol-5-yl]piperidin-1-yl}ethyl)piperazin-1-yl]phenyl}-4-oxo-3,4-dihydroquinazolin-6-yl)oxy]-4-fluorophenyl}-3-fluoropyrrolidine-1-sulfonamide] | 50 to 500 nM | 35 to 70% | 1 to 10 nM | 35 to 70%
8 | Cc1cc(N2CCC(CN3CCN(c4ccc(-n5cnc6ccc(Oc7c(F)ccc(NS(=O)(=O)N8CC[C@@H](F)C8)c7C#N)cc6c5=O)cc4)CC3)CC2)c(F)c2c1C(=O)N(C1CCC(=O)NC1=O)C2 (stereo partly drawn) [Example 94, (3R)-N-{2-cyano-3-[(3-(4-[4-({1-[2-(2,6-dioxopiperidin-3-yl)-4-fluoro-7-methyl-1-oxo-2,3-dihydro-1H-isoindol-5-yl]piperidin-4-yl}methyl)piperazin-1-yl]phenyl}-4-oxo-3,4-dihydroquinazolin-6-yl)oxy]-4-fluorophenyl}-3-fluoropyrrolidine-1-sulfonamide] | 5 to 50 nM | 35 to 70% | 1 to 10 nM | ≤ 35%
9 | Cn1c(=O)n(C2CCC(=O)NC2=O)c2cccc(N3CC(CN4CCN(c5ccc(-n6cnc7ccc(Oc8c(F)ccc(NS(=O)(=O)N9CC[C@@H](F)C9)c8C#N)cc7c6=O)cc5)CC4)C3)c21 (stereo partly drawn) [Example 218, (3R)-N-{2-cyano-3-[(3-{4-[4-({1-[1-(2,6-dioxopiperidin-3-yl)-3-methyl-2-oxo-2,3-dihydro-1H-1,3-benzodiazol-4-yl]azetidin-3-yl}methyl)piperazin-1-yl]phenyl}-4-oxo-3,4-dihydroquinazolin-6-yl)oxy]-4-fluorophenyl}-3-fluoropyrrolidine-1-sulfonamide] | 50 to 500 nM | 35 to 70% | 1 to 10 nM | 35 to 70%
